Source: patent US9597406B2, “Controlled release method for a pharmaceutical composition composed of chelating complex micelles” (Original BioMedicals Co., Ltd, priority 2012, dated 2017)

Tests used:
[1] = MTT cell viability test of doxorubicin CCM (FePD) with and without deferoxamine; type: cell-based, mouse; conditions: mouse, BNLCL.2 mouse embryonic liver cells, 2 h incubation, BNLCL.2 cells
Method: (§1) The cell viability test of doxorubicin CCM (FePD) was examined with and without adding metal chelator deferoxamine. MTT (3-(4,5-cimethylthiazol-2-yl)-2,5-diphenyl tetrazolium bromide) assay was used to assess the cytotoxicity of cells treated with FePD and deferoxamine.
(§2) The mouse embryonic liver cells (BNLCL.2) (100 μL) were inoculated onto a 96-well plate with density 1×10^5 cells/mL and cultured for 24 hr at 37° C. with 5% CO2 before subjecting to the test. After removal of supernatant, 100 μL of each sample was added to the cells and incubated for 2 hours (Table 1). The samples were sterilized by using 0.22 μm filters prior to treating the cells. The plate was then washed with PBS (phosphate buffered saline) and incubated with fresh medium for 24 hours. After removal of supernatant and washed with PBS, 10 μL MTT solution was added to the cells and incubated for 4 hours. The absorbance at 570 nm was measured (BioTek, Synergy TM2, USA).

[2] = test system: mouse embryonic liver cells (BNLCL.2); assay: as above; type: cell-based; conditions: 4 μM, 2 h incubation, then 24 h fresh medium, BNLCL.2 cells, 4 µM
Method: as §1, §2

Compound CC(=O)N(O)CCCCCNC(=O)CCC(=O)N(O)CCCCCNC(=O)CCC(=O)N(O)CCCCCN [deferoxamine] has a viability at 2 h, 13.5 µM ([1]; 13.5 μM, then 24 h fresh medium) of 104%.
In the case of COc1cccc2c1C(=O)c1c(O)c3c(c(O)c1C2=O)C[C@@](O)(C(=O)CO)C[C@@H]3O[C@H]1C[C@H](N)[C@H](O)[C@H](C)O1 [doxorubicin], the viability at 2 h, 4 μM ([1]; 4 μM, then 24 h fresh medium) is reported as 74.7%, the viability at 2 h, 4 μM ([1]; Group G: 4 μM + deferoxamine (13.5 μM)) is reported as 78.3% and the “Cell viability (%)” value [2] is reported as 74.7292%.
